Data as given in the supplement of paper PMC10307832.

Key:
Assay in all cases: relative viability (nuclei count vs DMSO), 5 days (fraction); higher = more cells survive
[1] = compound: Cn1cc(-c2cnn3c(N)c(Br)c([C@@H]4CCCNC4)nc23)cn1 + O=C(c1cc(Cc2n[nH]c(=O)c3ccccc23)ccc1F)N1CCN(C(=O)C2CC2)CC1 [Olaparib] (partner 8 µM)
Summary of the method: (§1)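 Cells from lung cancer lines were seeded into 1536-well plates and, one day later, dosed by pin tool. Treatments were either a single drug or a fixed dose of an anchor drug with five library-drug doses (not always all listed) in √10 steps. After 5 days, nuclei were stained in a one-step fixation (final 0.05% Triton X-100, 1% formaldehyde, 1 ug/ml Hoechst) and counted on 4× images, and relative viability is the treated-to-vehicle nuclei ratio, as the median of duplicate plates.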

[2] = compound: Cn1cc(-c2cnn3c(N)c(Br)c([C@@H]4CCCNC4)nc23)cn1 + CCNC(=O)c1noc(-c2cc(C(C)C)c(O)cc2O)c1-c1ccc(CN2CCOCC2)cc1 [Luminespib] (partner 0.01 µM)
Summary of the method: as §1

[3] = compound: Cn1cc(-c2cnn3c(N)c(Br)c([C@@H]4CCCNC4)nc23)cn1 + Nc1ncn([C@H]2C[C@H](O)[C@@H](CO)O2)c(=O)n1 [Decitabine] (partner 2 µM)
Summary of the method: as §1

[4] = compound: Cn1cc(-c2cnn3c(N)c(Br)c([C@@H]4CCCNC4)nc23)cn1 + CS(=O)(=O)CCNCc1ccc(-c2ccc3ncnc(Nc4ccc(OCc5cccc(F)c5)c(Cl)c4)c3c2)o1 [Lapatinib] (partner 2 µM)
Summary of the method: as §1

Cell Line	relative viability ([1]; first compound 0.05 µM)	relative viability ([1]; first compound 0.1581 µM)	relative viability ([1]; first compound 0.5 µM)	relative viability ([1]; first compound 1.581 µM)	relative viability ([1]; first compound 5 µM)	relative viability ([2]; first compound 0.05 µM)	relative viability ([2]; first compound 0.1581 µM)	relative viability ([2]; first compound 0.5 µM)	relative viability ([2]; first compound 1.581 µM)	relative viability ([2]; first compound 5 µM)	relative viability ([3]; first compound 0.05 µM)	relative viability ([3]; first compound 0.1581 µM)	relative viability ([3]; first compound 0.5 µM)	relative viability ([3]; first compound 1.581 µM)	relative viability ([3]; first compound 5 µM)	relative viability ([4]; first compound 0.05 µM)	relative viability ([4]; first compound 0.1581 µM)	relative viability ([4]; first compound 0.5 µM)	relative viability ([4]; first compound 1.581 µM)	relative viability ([4]; first compound 5 µM)
NCI-H441	0.672	0.697	0.494	0.37	0.43	0.373	0.348	0.31	0.254	0.302	0.257	0.249	0.26	0.22	0.257					
NCI-H1793	1.02	1.08	0.921	0.718	0.472	0.211	0.815	0.233	0.172	0.152	0.532	0.543	0.542	0.498	0.178	0.709	0.926	0.689	0.753	0.259
NCI-H23	0.283	0.286	0.229	0.227	0.174	0.22	0.205	0.187	0.215	0.201	0.295	0.278	0.362	0.267	0.269	1.08	1.23	1.02	0.825	0.267
HARA	0.758	0.856	0.784	0.442	0.229	0.752	0.706	0.631	0.376	0.16	0.691	0.497	0.624	0.584	0.41	0.728	0.873	1.08	0.626	0.179
NCI-H1792	0.637	0.368	0.378		0.34	0.488	0.616	0.439	0.79	0.317	0.542	0.627	0.587		0.516	0.84	1.06	0.335	0.718	0.784
NCI-H1703	0.416	0.364	0.364	0.233	0.123											1.18	0.454	0.481	0.205	0.124
NCI-H2342	0.467	0.585	0.448	0.463	0.438	0.764	0.88	0.773	0.708	0.615	0.728	0.731	0.696	0.639	0.742					
CAL-12T	0.835	0.752	0.824	0.398	0.268	0.517	0.173	0.252	0.289	0.204						0.713	0.735	0.723	0.618	0.395
NCI-H727	0.754	0.873	0.68	0.646	0.559	0.345	0.412	0.315	0.354	0.343	0.919	0.858	0.923	0.696	0.705	0.867	1.05	0.813	0.88	0.426
NCI-H2085	0.813	0.849	0.776	0.762	0.752	0.4	0.477	0.461	0.417	0.339	0.532	0.594	0.551	0.545	0.624	0.801	0.847	0.893	0.738	0.621
NCI-H1395	0.432	0.445	0.395	0.376	0.372	0.762	0.536	0.687	0.349	0.379	0.761	0.554	0.63	0.501	0.378	1.01	0.634	0.756	0.833	0.397
NCI-H1648	0.64	0.829	1.1	1.08	0.583						0.383	0.483	0.487	0.467	0.504					
NCI-H460	0.341	0.195	0.38	0.233	0.127	0.0336	0.0269	0.0266	0.0285	0.0325	0.523	0.546	0.31	0.356	0.19	1.12	1.37	1.15	0.288	0.591
A549	0.483	0.35	0.352	0.301	0.166						0.323	0.281	0.279	0.278	0.116	1.03	1.11	0.909	0.795	0.643
IA-LM	0.964	0.932	0.902	0.643	0.358											0.927	0.624	0.581	0.44	0.225
EKVX	0.761	0.958	0.872	0.767	0.707	0.939	0.958	0.797	0.845	0.667	0.768	0.414	0.343	0.571	0.41	0.204	0.215	0.192	0.193	0.184

Cell Line	relative viability ([1]; first compound 0.05 µM)	relative viability ([1]; first compound 0.1581 µM)	relative viability ([1]; first compound 0.5 µM)	relative viability ([1]; first compound 1.581 µM)	relative viability ([1]; first compound 5 µM)	relative viability ([2]; first compound 0.05 µM)	relative viability ([2]; first compound 0.1581 µM)	relative viability ([2]; first compound 0.5 µM)	relative viability ([2]; first compound 1.581 µM)	relative viability ([2]; first compound 5 µM)	relative viability ([3]; first compound 0.05 µM)	relative viability ([3]; first compound 0.1581 µM)	relative viability ([3]; first compound 0.5 µM)	relative viability ([3]; first compound 1.581 µM)	relative viability ([3]; first compound 5 µM)	relative viability ([4]; first compound 0.05 µM)	relative viability ([4]; first compound 0.1581 µM)	relative viability ([4]; first compound 0.5 µM)	relative viability ([4]; first compound 1.581 µM)	relative viability ([4]; first compound 5 µM)
ChaGo-K-1	0.407	0.511	0.419	0.428	0.463	0.574	0.537	0.612	0.509	0.452	0.52	0.559	0.526	0.563	0.601					
NCI-H1755	0.964	0.989	0.931	0.989	0.847	0.465	0.534	0.394	0.562	0.194	0.722	0.81	0.774	0.793	0.855	1.15	1.14	1.09	0.743	0.758
NCI-H2228	0.546	0.688	0.675	0.508	0.359	0.138	0.132	0.212	0.124	0.112						1.54	1.14	1.2	0.493	0.378
NCI-H2087	0.766	0.735	0.623	0.624	0.676	0.143	0.168	0.192	0.151	0.175	0.258	0.25	0.231	0.331	0.347	1.29	1.17	0.996	1.21	0.985
LU99A	0.244	0.235	0.236	0.221	0.163	0.31	0.202	0.248	0.162	0.223	0.912	0.92	0.875	0.822	1.01	1.04	1.11	0.998	0.858	0.611
NCI-H1355	0.811	0.89	0.788	0.795	0.69	0.691	0.662	0.699	0.609	0.735	0.344	0.332	0.378	0.417	0.358	1	1.08	0.92	0.969	0.859
NCI-H520	0.353	0.367	0.302	0.326	0.236	0.207	0.206	0.217	0.219	0.221	0.528	0.543	0.57	0.527	0.306	0.819	0.685	0.649	0.705	0.707
NCI-H661	0.874	0.83	0.745	0.511	0.538	0.953	0.953	0.991	0.829	0.729	0.551	0.578	0.529	0.462	0.373	0.441	0.503	0.518	0.48	0.324
NCI-H650	0.427	0.557	0.523	0.551	0.397	0.807	0.872	0.749	0.811	0.345	0.317	0.341	0.34	0.39	0.434	0.802	0.831	1.03	0.652	0.503
NCI-H647	0.686	0.64	0.332	0.202	0.12	0.232	0.262	0.127	0.106	0.104	0.434	0.522	0.42	0.409	0.143	1.43	1.22	1.17	0.497	0.275
HCC-78	0.826	0.874	0.947	0.878	0.465						0.733	0.729	0.783	0.675	0.492	0.841	0.92	0.786	0.641	0.245
HCC-366	0.392	0.372	0.296	0.229	0.137						0.307	0.338	0.334	0.347	0.247	1.05	1.32	0.66	0.649	0.382
LCLC-103H	0.842	0.804	0.77	0.746	0.711	1.05	1.02	0.895	0.699	0.816	0.745	0.73	0.809	0.695	0.816					
NCI-H1563						0.62	0.578	0.51	0.55	0.37						0.941	0.861	0.888	0.859	0.888
EBC-1	0.846	0.854	0.726	0.75	0.616											0.207	0.183	0.24	0.223	0.192
Calu-6	0.604	0.521	0.481	0.251	0.168											1.2	0.745	0.678	0.329	0.193
